From patent publication US11999746B2, “Compounds” (GlaxoSmithKline Intellectual Property Development Limited, priority 2014, dated 2024)

Key:
[1] = molecular target: T1, recombinant human Lp-PLA2 (Homo sapiens, UniProt Q13093); assay: (1a) PED6 assay, recombinant human Lp-PLA2 (rhLp-PLA2); assay type: biochemical; conditions: Examples 1-167 and 413-430 were tested here, one experiment or average of multiple experiments, read-out: rhLp-PLA2 (pIC50) (converted)
T1 sequence (Q13093 22-441): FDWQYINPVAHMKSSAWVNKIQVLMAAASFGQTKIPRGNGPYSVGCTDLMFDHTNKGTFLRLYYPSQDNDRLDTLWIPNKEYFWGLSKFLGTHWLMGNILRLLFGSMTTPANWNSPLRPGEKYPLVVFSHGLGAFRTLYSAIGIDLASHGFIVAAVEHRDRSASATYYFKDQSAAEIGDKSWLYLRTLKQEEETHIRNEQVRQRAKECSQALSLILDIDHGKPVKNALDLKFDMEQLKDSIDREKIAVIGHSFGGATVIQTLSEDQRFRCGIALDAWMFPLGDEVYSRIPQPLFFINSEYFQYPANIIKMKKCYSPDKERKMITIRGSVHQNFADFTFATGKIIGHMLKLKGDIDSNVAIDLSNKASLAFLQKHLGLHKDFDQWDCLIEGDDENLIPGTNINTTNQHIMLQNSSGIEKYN
How it was run: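 PED6 (2 μM final after 1:1 addition of 4 μM stock) cleavage by rhLp-PLA2 (4 nM working solution) in 50 mM HEPES pH 7.4, 150 mM NaCl, 1 mM CHAPS; compounds preincubated with enzyme 30 minutes, reaction 20 min at room temperature. Fluorescence at ex 480/em 540; pIC50 from curve fit.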

[2] = molecular target: T2, Lp-PLA2 in human plasma (Homo sapiens, UniProt Q13093); assay: (3a) Lp-PLA2 human plasma Thio-PAF assay; assay type: biochemical; conditions: (3a) Thio-PAF assay, pooled human plasma; Examples 1-265 and 413-430 were tested here; read-out: pIC50 in the Lp-PLA2 human plasma assay (converted)
T2 construct: from tissue; host or cells: pooled human plasma
T2 sequence (Q13093 22-441): T1 sequence (Q13093 22-441)
How it was run: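 Endogenous Lp-PLA2 activity in frozen pooled human plasma measured as thiol release from 2-thio-PAF, detected by CPM fluorescence (ex 380/em 485). Compound preincubation 30 min; 2-min reaction in HEPES pH 7.4 buffer with NEM, stopped with 5% TFA, read 40 min later at room temperature; values as pIC50.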

SMILES | IC50 [1] | IC50 [2]
O=c1nc(OCc2cc(F)c(F)c(F)c2)cc2n1C[C@H]1CCCCN21 [Example E54, (R)-3-((3,4,5-Trifluorobenzyl)oxy)-6,7,8,9,9a,10-hexahydro-1H-pyrido[1′,2′:3,4]imidazo[1,2-c]pyrimidin-1-one] | ≤ 100 nM | ≤ 100 nM
O=c1nc(OCc2ccc(F)cc2F)cc2n1C[C@H]1CCCCN21 [Example E55, (R)-3-((2,4-Difluorobenzyl)oxy)-6,7,8,9,9a,10-hexahydro-1H-pyrido[1′,2′:3,4]imidazo[1,2-c] pyrimidin-1-one] | ≤ 100 nM | ≤ 10000 nM
O=c1nc(OCc2cccc(F)c2F)cc2n1C[C@H]1CCCCN21 [Example E56, (R)-3-((2,3-Difluorobenzyl)oxy)-6,7,8,9,9a,10-hexahydro-1H-pyrido[1′,2′:3,4]imidazo[1,2-c] pyrimidin-1-one] | ≤ 100 nM | ≤ 10000 nM
O=c1nc(OCc2ccc(F)cc2F)cc2n1C[C@@H]1CCCCN21 [Example E57, (S)-3-((2,4-Difluorobenzyl)oxy)-6,7,8,9,9a,10-hexahydro-1H-pyrido[1′,2′:3,4]imidazo[1,2-c] pyrimidin-1-one] | ≤ 100 nM | ≤ 10000 nM
O=c1nc(OCc2cccc(F)c2F)cc2n1C[C@@H]1CCCCN21 [Example E58, (S)-3-((2,3-Difluorobenzyl)oxy)-6,7,8,9,9a,10-hexahydro-1H-pyrido[1′,2′:3,4]imidazo[1,2-c] pyrimidin-1-one] | ≤ 100 nM | ≤ 10000 nM
O=c1nc(OCc2cc(F)c(F)cc2F)cc2n1C[C@@H]1CCCCN21 [Example E59, (S)-3-((2,4,5-Trifluorobenzyl)oxy)-6,7,8,9,9a,10-hexahydro-1H-pyrido[1′,2′:3,4]imidazo[1,2-c]pyrimidin-1-one] | ≤ 100 nM | ≤ 10000 nM
O=c1nc(OCc2cccc(F)c2)cc2n1C[C@@H]1CCCCN21 [Example E60, (S)-3-((3-Fluorobenzyl)oxy)-6,7,8,9,9a,10-hexahydro-1H-pyrido[1′,2′:3,4]imidazo[1,2-c] pyrimidin-1-one] | ≤ 100 nM | ≤ 10000 nM
O=c1nc(OCc2cc(F)c(OC3(CCF)CC3)c(F)c2)cc2n1C[C@H]1CCCCN21 [Example E62, (R)-3-((3,5-Difluoro-4-(1-(2-fluoroethyl)cyclopropoxy)benzyl)oxy)-6,7,8,9,9a,10-hexahydro-1H-pyrido[1′,2′:3,4]imidazo[1,2-c]pyrimidin-1-one] | ≤ 100 nM | ≤ 10000 nM
Cn1cc(Oc2c(F)cc(COc3cc4n(c(=O)n3)CC3CCCN43)cc2F)cn1 (centres unmarked) [Example E63, 3-((3,5-Difluoro-4-((1-methyl-1H-pyrazol-4-yl)oxy)benzyl)oxy)-7,8,8a,9-tetrahydro pyrrolo[1′,2′:3, 4] imidazo[1,2-c] pyrimidin-1(6H)-one] | ≤ 100 nM | ≤ 10000 nM
CCn1cc(Oc2c(F)cc(COc3cc4n(c(=O)n3)CC3CCCN43)cc2F)cn1 (centres unmarked) [Example E64, 3-((4-((1-Ethyl-1H-pyrazol-4-yl)oxy)-3,5-difluorobenzyl)oxy)-7,8,8a, 9-tetrahydropyrrolo[1′,2′:3,4]imidazo[1,2-c]pyrimidin-1(6H)-one] | ≤ 100 nM | ≤ 10000 nM
CC(C)n1cc(Oc2c(F)cc(COc3cc4n(c(=O)n3)CC3CCCN43)cc2F)cn1 (centres unmarked) [Example E65, 3-((3,5-Difluoro-4-((1-isopropyl-1H-pyrazol-4-yl)oxy)benzyl)oxy)-7,8,8a, 9-tetrahydro pyrrolo[1′,2′:3,4]imidazo[1,2-c]pyrimidin-1(6H)-one] | ≤ 100 nM | ≤ 10000 nM
Cn1cc(Oc2c(F)cc(COc3cc4n(c(=O)n3)C[C@H]3CCCN43)cc2F)cn1 [Example E66, (R)-3-((3,5-difluoro-4-((1-methyl-1H-pyrazol-4-yl)oxy)benzyl)oxy)-7,8,8a, 9-tetrahydro pyrrolo[1′,2′:3,4]imidazo[1,2-c]pyrimidin-1(6H)-one] | ≤ 100 nM | ≤ 10000 nM
Cn1cc(Oc2ccc(COc3cc4n(c(=O)n3)C[C@H]3CCCN43)cc2F)cn1 [Example E68, (R)-3-((3-fluoro-4-((1-methyl-1H-pyrazol-4-yl)oxy)benzyl)oxy)-7,8,8a, 9-tetrahydro pyrrolo[1′,2′:3,4]imidazo[1,2-c]pyrimidin-1(6H)-one] | ≤ 100 nM | ≤ 10000 nM
O=c1nc(OCc2ccc(Oc3cnc(C(F)(F)F)nc3)c(F)c2)cc2n1C[C@H]1CCCN21 [Example E69, (R)-3-((3-fluoro-4-((2-(trifluoromethyl)pyrimidin-5-yl)oxy)benzyl)oxy)-7,8,8a, 9-tetra hydropyrrolo[1′,2′:3,4]imidazo[1,2-c]pyrimidin-1(6H)-one] | ≤ 100 nM | ≤ 100 nM
O=c1nc(OCc2cc(F)c(F)c(F)c2)cc2n1C[C@H]1CCCN21 [Example E70, (R)-3-((3,4,5-trifluorobenzyl)oxy)-7,8,8a,9-tetrahydropyrrolo[1′,2′:3,4]imidazo[1,2-c] pyrimidin-1(6H)-one] | ≤ 100 nM | ≤ 100 nM
O=c1nc(OCc2ccc(Oc3cnc(C(F)(F)F)nc3)c(F)c2)cc2n1C[C@@H]1CCCN21 [Example E72, (S)-3-((3-fluoro-4-((2-(trifluoromethyl)pyrimidin-5-yl)oxy)benzyl)oxy)-7,8,8a, 9-tetra hydropyrrolo[1′,2′:3,4]imidazo[1,2-c]pyrimidin-1(6H)-one] | ≤ 100 nM | ≤ 10000 nM
O=c1nc(OCc2cc(F)c(F)c(F)c2)cc2n1C[C@@H]1CCCN21 [Example E73, (S)-3-((3,4,5-trifluorobenzyl)oxy)-7,8,8a,9-tetrahydropyrrolo[1,2′:3,4]imidazo[1,2-c] pyrimidin-1(6H)-one] | ≤ 100 nM | ≤ 10000 nM
O=c1nc(OCc2cc(F)c(Oc3ccc(F)c(F)c3)c(F)c2)cc2n1C[C@@H]1CCCN21 [Example E74, (S)-3-((4-(3,4-difluorophenoxy)-3,5-difluorobenzyl)oxy)-7,8,8a,9-tetrahydropyrrolo[1′,2′:3,4]imidazo[1,2-c]pyrimidin-1(6H)-one] | ≤ 100 nM | ≤ 10000 nM
O=c1nc(OCc2cc(F)c(Oc3ccnc(C(F)(F)F)c3)c(F)c2)cc2n1CC1CCCN21 (centres unmarked) [Example E75, 3-((3,5-difluoro-4-((2-(trifluoromethyl)pyridin-4-yl)oxy)benzyl)oxy)-7,8,8a, 9-tetrahydro pyrrolo[1′, 2′:3, 4]imidazo[1,2-c]pyrimidin-1(6H)-one] | ≤ 1 nM | ≤ 100 nM
O=c1nc(OCc2cnc(Oc3ccc(Cl)c(C(F)(F)F)c3)c(F)c2)cc2n1CC1CCCN21 (centres unmarked) [Example E76, 3-((6-(4-Chloro-3-(trifluoromethyl)phenoxy)-5-fluoropyridin-3-yl)methoxy)-7,8,8a,9 tetra hydro pyrrolo[1′,2′:3,4]imidazo[1,2-c]pyrimidin-1(6H)-one] | ≤ 100 nM | ≤ 10000 nM
N#Cc1cc(COc2cc3n(c(=O)n2)CC2CCCN32)ccc1Oc1ccc(Cl)c(C(F)(F)F)c1 (centres unmarked) [Example E77, 2-(4-Chloro-3-(trifluoromethyl)phenoxy)-5-(((1-oxo-1,6,7,8,8a,9-hexahydropyrrolo[1,2′:3,4]imidazo[1,2-c]pyrimidin-3-yl)oxy)methyl)benzonitrile] | ≤ 1 nM | ≤ 100 nM
O=c1nc(OCc2cc(F)c(Oc3ccc(C(F)(F)F)nc3)c(F)c2)cc2n1CC1CCCN21 (centres unmarked) [Example E78, 3-((3,5-Difluoro-4-((6-(trifluoromethyl)pyridin-3-yl)oxy)benzyl)oxy)-7,8,8a,9-tetrahydro pyrrolo[1′,2′:3,4]imidazo[1,2-c]pyrimidin-1(6H)-one] | ≤ 1 nM | ≤ 100 nM
O=c1nc(OCc2cc(F)c(Oc3ccc(C(F)(F)F)nc3)c(F)c2)cc2n1C[C@H]1CCCN21 [Example E79, (R)-3-((3,5-difluoro-4-((6-(trifluoromethyl)pyridin-3-yl)oxy)benzyl)oxy)-7,8,8a,9-tetrahydro pyrrolo[1′,2′:3,4]imidazo[1,2-c]pyrimidin-1(6H)-one] | ≤ 1 nM | ≤ 100 nM
O=c1nc(OCc2cc(F)c(Oc3ccc(C(F)(F)F)nc3)c(F)c2)cc2n1C[C@@H]1CCCN21 [Example E80, (S)-3-((3,5-difluoro-4-((6-(trifluoromethyl)pyridin-3-yl)oxy)benzyl)oxy)-7,8,8a,9-tetrahydro pyrrolo[1′,2′:3,4]imidazo[1,2-c]pyrimidin-1(6H)-one] | ≤ 100 nM | ≤ 10000 nM
O=c1nc(OCc2cc(F)c(Oc3cccc(C(F)(F)F)c3)c(F)c2)cc2n1CC1CCCN21 (centres unmarked) [Example E81, 3-((3,5-difluoro-4-(3-(trifluoromethyl)phenoxy)benzyl)oxy)-7,8,8a,9-tetrahydropyrrolo[1′,2′:3, 4]imidazo[1,2-c]pyrimidin-1(6H)-one] | ≤ 1 nM | ≤ 100 nM
